Laboratory results: US20210147371A1, “OXADIAZOLINE DERIVATIVES” (Bayer Aktiengesellschaft, priority 2018, published 2021)
Read-outs that look alike come from different tables or passages of the source.

Assay: Log P by HPLC on reversed phase columns (EEC directive 79/831 Annex V.A8)
Format: physicochemical
Method: Measurement of Log P values was performed according to EEC directive 79/831 Annex V.A8 by HPLC (High Performance Liquid Chromatography) on reversed phase columns with the following methods: • [^a]
If more than one Log P value is available within the same method, all the values are given and separated by “+”.
Calibration was done with straight-chain alkan2-ones (with 3 to 16 carbon atoms) with known Log P values (measurement of Log P values using retention times with linear interpolation between successive alkanones). Lambda-max-values were determined using UV-spectra from 200 nm to 400 nm and the peak values of the chromatographic signals.

[1] = method [a]: LC-UV, acidic range, 0.1% formic acid in water and acetonitrile, compounds of formula (I), read-out: Log P
[2] = reversed phase HPLC columns, method [a]: LC-UV, acidic range, 0.1% formic acid in water and acetonitrile, compounds of formula (I), read-out: Log P

CN(C)C(=O)Oc1ccc(C2=NOC(C(F)(F)F)N2)cc1 (stereo not shown) [Compound I-03, 4-[5-(Trifluoromethyl)-4,5-dihydro-1,2,4-oxadiazol-3-yl]phenyl dimethylcarbamate]
chromatographic logP [1]: 2.19

CC(=O)N1C(c2ccc(OC(=O)N(C)C)cc2)=NOC1C(F)(F)F (stereo not shown) [Compound I-16, 4-[Acetyl-5-(trifluoromethyl)-4,5-dihydro-1,2,4-oxadiazol-3-yl]phenyl dimethylcarbamate]
chromatographic logP [1]: 2.62

FC(F)(F)C1NC(c2ccc3c(cnn3Cc3ccccc3)c2)=NO1 (stereo not shown) [Compound I-23, 1-Benzyl-5-[(trifluoromethyl)-4,5-dihydro-1,2,4-oxadiazol-3-yl]-2H-indazole]
chromatographic logP [2]: 3

FC(F)(F)C1NC(c2ccc3nn(Cc4ccccc4)cc3c2)=NO1 (stereo not shown) [Compound I-24, 2-Benzyl-5-[(trifluoromethyl)-4,5-dihydro-1,2,4-oxadiazol-3-yl]-2H-indazole]
chromatographic logP [2]: 2.69

CN(C)C(=O)Oc1ccc(-c2noc(C(F)(F)F)n2)cc1 [IV-05, 4-[5-(Trifluoromethyl)-1,2,4-oxadiazol-3-yl]phenyl dimethylcarbamate]
chromatographic logP (method [a]: LC-UV, acidic range, 0.1% formic acid in water and acetonitrile, intermediates of formula (IV), read-out: LogP): 3.37

FC(F)(F)c1nc(-c2ccc3nn(Cc4ccccc4)cc3c2)no1 [IV-15, 2-Benzyl-5-[5-(trifluoromethyl)-1,2,4-oxadiazol-3-yl]-1H-indazole]
chromatographic logP (reversed phase HPLC columns, method [a]: LC-UV, acidic range, 0.1% formic acid in water and acetonitrile, intermediates of formula (IV), read-out: LogP): 4.03

FC(F)(F)c1nc(-c2ccc3c(cnn3Cc3ccccc3)c2)no1 [IV-17, 1-Benzyl-5-[5-(trifluoromethyl)-1,2,4-oxadiazol-3-yl]-1H-indazole]
chromatographic logP: 4.39
